Measured values reported in patent publication US12516064B2, “Tetrahydropyridopyrimidines and related analogs for inhibiting YAP/TAZ-TEAD” (THE KATHOLIEKE UNIVERSITEIT LEUVEN, priority 2022, dated 2026).

How the values were obtained:
Format in all cases: cell-based
[1] = tested on: YAP/TAZ-TEAD transcription; assay: Reporter gene assay for measuring the inhibition of YAP/TAZ-TEAD transcription; conditions: Homo sapiens, HEK-293T; Hek293T cells transiently transfected with TEAD-responsive element luciferase reporter; 24 hours incubation
How it was run: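 HEK293T cells transiently transfected with a TEAD-responsive luciferase reporter, plated onto pre-diluted compounds and incubated 24 h at 37 °C/5% CO2. Luminescence read after SteadyLite substrate; percent inhibition scaled between vehicle (0%) and positive control inhibitor (100%), giving IC50/EC50.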

NCI-H2052 = assay: Mesothelioma cell line proliferation assay (NCI-H2052); conditions: Homo sapiens, 144 h; NCI-H2052 cells; 6 days with compound; cell viability by ATPlite
Method: (§1) Mesothelioma cell lines, NCI-H226 and NCI-H2052 (all sourced from the ATCC cell culture collection) are plated in 96-well plates (Corning® 96 Well White Polystyrene Microplate clear flat bottom, white polystyrene (TC-Treated)), at 1500 cells/well in full medium (RPMI 1640 ATCC modification with L-glutamine, HEPES, Phenol Red, Sodium Pyruvate, High glucose, Low sodium bicarbonate and 10% fetal bovine serum). Cells are incubated overnight at 37° C. in an incubator with 5% CO2. Then compounds, dissolved in DMSO, are added in dose-response. Cells are incubated with compound dilutions for another 6 days at 37° C. in an incubator with 5% CO2. Cell viability is quantitated using the ATPlite kit (Perkin-Elmer) and the luminescence is read-out using an Envision instrument (Perkin-Elmer). The amount of relative light units produced using the ATPlite kit is used to calculated percent of inhibition.
(§2) The activities of some example compounds are depicted in Table 9. The activity ranges A, B and C refer to EC50 values in the mesothelioma cell line proliferation assay as described as follows: “A”: EC50<1 μM; “B”: 1 μM≤EC50≤10 μM and “C”: EC50>10 μM; NT: not tested.

NCI-H226 = assay: Mesothelioma cell line proliferation assay (NCI-H226); conditions: Homo sapiens, 144 h; NCI-H226 cells; 6 days with compound; cell viability by ATPlite
Method: as §1, §2

Row | SMILES | EC50 [1] [µM] | EC50 (NCI-H2052) [µM] | EC50 (NCI-H226) [µM]
1 | C=C(C)C(=O)N1CCc2c(nc(-c3ccc(C(F)(F)F)cc3)nc2-c2ccn(C)n2)C1 [Cpd. No. 77, 2-methyl-1-(4-(1-methyl-1H-pyrazol-3-yl)-2-(4-(trifluoromethyl)phenyl)-5,8-dihydropyrido[3,4-d]pyrimidin-7(6H)-yl)prop-2-en-1-one] | < 1 | > 10 | < 1
2 | CC#CC(=O)N1CCc2c(nc(-c3ccc(C(F)(F)F)cc3)nc2-c2ccn(C)n2)C1 [Cpd. No. 86, 1-(4-(1-methyl-1H-pyrazol-3-yl)-2-(4-(trifluoromethyl)phenyl)-5,8-dihydropyrido[3,4-d]pyrimidin-7(6H)-yl)but-2-yn-1-one] | < 1 | < 1 | < 1
3 | C=CC(=O)N1CCc2c(nc(-c3ccc(C(F)(F)F)cc3)nc2-c2cn(C)nn2)C1 [Cpd. No. 87, 1-(4-(1-methyl-1H-1,2,3-triazol-4-yl)-2-(4-(trifluoromethyl)phenyl)-5,8-dihydropyrido[3,4-d]pyrimidin-7(6H)-yl)prop-2-en-1-one] | < 1 | 1 to 10 | 1 to 10
4 | Cn1ccc(-c2nc(-c3ccc(C(F)(F)F)cc3)nc3c2CCN(C(=O)C2CO2)C3)n1 (stereo not drawn) [Cpd. No. 88, (4-(1-methyl-1H-pyrazol-3-yl)-2-(4-(trifluoromethyl)phenyl)-5,8-dihydropyrido[3,4-d]pyrimidin-7(6H)-yl)(oxiran-2-yl)methanone] | < 1 | 1 to 10 | < 1
5 | C=CC(=O)N1CCc2c(nc(C3CCC(F)(F)CC3)nc2-c2ccn(C)n2)C1 [Cpd. No. 89, 1-(2-(4,4-difluorocyclohexyl)-4-(1-methyl-1H-pyrazol-3-yl)-5,8-dihydropyrido[3,4-d]pyrimidin-7(6H)-yl)prop-2-en-1-one] | < 1 | > 10 | < 1
6 | CCC(=O)N1CCc2c(nc(C3CCC(F)(F)CC3)nc2-c2ccn(C)n2)C1 [Cpd. No. 90, 1-(2-(4,4-difluorocyclohexyl)-4-(1-methyl-1H-pyrazol-3-yl)-5,8-dihydropyrido[3,4-d]pyrimidin-7(6H)-yl)propan-1-one] | 1 to 3 | > 10 | > 10
7 | C=CC(=O)N1CCc2c(nc(-c3ccc(C(F)(F)F)cc3)nc2-c2cnn(C)n2)C1 [Cpd. No. 92, 1-(4-(2-methyl-2H-1,2,3-triazol-4-yl)-2-(4-(trifluoromethyl)phenyl)-5,8-dihydropyrido[3,4-d]pyrimidin-7(6H)-yl)prop-2-en-1-one] | < 1 | 1 to 10 | < 1
8 | CC#CC(=O)N1CCc2c(nc(C3CCC(F)(F)CC3)nc2-c2ccn(C)n2)C1 [Cpd. No. 94, 1-(2-(4,4-difluorocyclohexyl)-4-(1-methyl-1H-pyrazol-3-yl)-5,8-dihydropyrido[3,4-d]pyrimidin-7(6H)-yl)but-2-yn-1-one] | < 1 | > 10 | < 1
